Test results as given in article PMC5214534, “Disaggregation of Amylin Aggregate by Novel Conformationally Restricted Aminobenzoic Acid containing α/β and α/γ Hybrid Peptidomimetics” (Scientific Reports, 2017).
Where a SMILES comes first, the peptide text is derived from it. Where no end group is shown, it is not given here. [ ]: non-standard residue; d: D form. 3Abz = Nc1cccc(C(=O)O)c1; 4Abz = Nc1ccc(C(=O)O)cc1; 2Abz = Nc1ccccc1C(=O)O; Aib = CC(C)(N)C(=O)O

Legend:
hIAPP1-37 = biological target: T1, hIAPP1-37 (Homo sapiens, UniProt P10997); assay: Time dependent Thioflavin T assay, inhibition of amyloid formation of hIAPP; assay type: biochemical; conditions: 10-fold molar excess of peptidomimetic co-incubated with hIAPP 40 μM, PBS pH 7.4, 37 °C, up to 7 days; average of 3 replica
T1 construct: 3.1 mg of hIAPP(1-37) was dissolved in 50 μL of HFIP
T1 sequence (P10997 34-70): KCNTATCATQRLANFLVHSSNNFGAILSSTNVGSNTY
Procedure: To examine the inhibitory efficacy of the single breaker element (I26X) containing BSBHps (3, 4 and 5), we performed various biophysical studies in absence and presence of BSBHps and compared the effect with that of the control 2. The BSBHps and the control were co-incubated with hIAPP in PBS pH 7.4 at 37 °C up to 7 days and the kinetics of the amyloid formation was monitored using various biophysical tools. To investigate dose dependence, 2-, 5- and 10-fold molar excess of peptidomimetics were incubated with hIAPP.
(§1) 3.1 mg of hIAPP(1-37) was dissolved in 50 μL of HFIP to obtain disaggregated hIAPP and HFIP was evaporated using nitrogen gas[43]. This process was repeated twice. Then, 5 mL of Milli Q water was added to the disaggregated material and divided the whole solution into 25 equal portions with 200 μL each. All 25 portions are lyophilized followed by addition of 800 μL of PBS (50 mM, pH 7.4) to each portion to obtain a final hIAPP concentration of 40 μM.
(§2) 50 μM Thioflavin T (ThT) in PBS (50 mM, pH 7.4) was prepared. All the synthesized peptides and hIAPP (alone and in some cases mixed with breaker peptides) were dissolved in PBS (50 mM, pH 7.4) to obtain a desired stock solution (40 μM in the case of hIAPP) and incubated at 37 °C over a water bath. To perform the fluorescence study, 40 μL of sample was taken out from the stock solution and was mixed with 200 μL of ThT solution (50 μM); final volume was made up to 400 μL with PBS. For ThT fluorescence assay, emission was measured at 490 nm and excitation at 435 nm, using a slit of 3 nm on a Fluoromax-4, Horiba instrument. The text files were taken from the instrument and graphs were plotted using OriginPro 8 software. For each data point 3 different sets of replica were scanned separately and average was taken with observed standard deviation.

[1] = biological target: T2, preformed fibrils of hIAPP (Homo sapiens, UniProt P10997); assay: Time dependent Thioflavin T assay, disruption of preformed fibrils of hIAPP; assay type: biochemical; conditions: 10-fold molar excess added at 48 h to hIAPP 40 μM preincubated in PBS pH 7.4, 37 °C; total 7 (2 + 5) days; average of 3 replica
T2 construct: 3.1 mg of hIAPP(1-37) was dissolved in 50 μL of HFIP
T2 sequence (P10997 34-70): T1 sequence (P10997 34-70)
Procedure: We already observed that the BSBHps (3, 4, 7, and 8) were efficient inhibitors. Further, we investigated the ability of those molecules to disrupt preformed fibrils of hIAPP in vitro. From the ThT assay (black, Fig. 2a), we observed that hIAPP fibrillzation was maximum at ~45–50 h. Therefore, we designed an experiment where the BSBHps were added into the preformed fibrillar assembly at 48 h (2 days). The hIAPP was incubated alone in PBS pH 7.4 at 37 °C for 48 h (2 days) and then varied molar excess (2-, 5-, and 10-fold) of designed peptidomimetics were added to it and fibril disruption was monitored by various biophysical tools.
as §1, §2

[2] = Stability in presence of human serum (proteolytic enzymes); assay type: in vitro ADME; conditions: RPMI 1640 with 10% human serum (v/v), 37 °C, 15 min pre-incubation, 10 μL of 5 mg/mL DMSO stock in 1 mL, RP-HPLC and mass spectrometry
From the text: Further, to test the stability of these peptidommetics in biological system we performed in vitro stability study in presence of human serum[37][38] which contained sufficient concentration of proteolytic enzymes. We selected BSBHPs 3 and 7, as from the results of all the experiments described above it was clear that BSBHps 3 (one breaker element containing) and 7 (two breaker elements containing) were the best among all the synthesized peptidomimetics. We compared the stability of 3 and 7 with their native peptide analogue (1) using time dependent HPLC & Mass spectrometry studies.
1 mL of the RPMI (Roswell Park Memorial Institute) 1640 media supplemented with 10% human serum (v/v) obtained from Thermo Fisher Scientific was taken in three different 2 mL eppendorf tube and incubated them at 37 °C for 15 min[38]. Then, 10 μL of the peptidomimetics (1, 3 & 7) in DMSO (5 mg/mL) were separately added to the RPMI media and incubated them at 37 °C. At different time interval 100 μL of the aliquot was taken out from the three different eppendorf tubes and added to 200 μL ethanol solution (96% aqueous ethanol) for precipitation of the serum protein. The precipitate was cooled (4 °C) for 10 min and then centrifuged at 18,000 rpm for 2 min and the pellet was discarded. The supernatant was collected and analyzed by RP-HPLC & Mass spectrometry. A linear gradient was used in the HPLC, from 5–100% CH3CN for 18 min followed by 100% CH3CN till 20 min with a flow rate of 4 mL/min using a semi-preparative C18-μ Bondapak column. Binary solvent system were used, solvent A (0.1% TFA in H2O) and solvent B (0.1% TFA in CH3CN).

[3] = Carboxyfluorescein dye leakage assay; conditions: sample 2: hIAPP incubated for 12 h; LUVs DPPC:cholesterol:GM1 68:30:2, 50 mM HEPES pH 7.4; peptide:lipid 1:20; 0 to 100 min
Procedure: The hIAPP soluble oligomers are known as more toxic than the matured amyloid, since they can damage the cell by forming pores on the cell membrane. […] To perform the vesicle leakage study, we have prepared 9 sets of different samples including untreated LUVs (without any peptide) as control for the experiment. All the peptidomimetics were added to hIAPP solution after 48 h of incubation and kept for total of 7 days (168 h = 48 h + 120 h) of incubation. After that different peptide solutions were added separately to the LUVs and leakage studies were performed. The different type of samples that were prepared is described below;
The peptide and the lipid were present in 1:20 molar ratios during leakage analysis. At the end of the experiment 10 μL of Triton X-100 was added to obtain complete dye release from the vesicle and the final fluorescence was measured. In addition to those, untreated LUVs (natural dye leakage) were studied and used as control. % dye leakage was calculated as[35],
The LUVs were prepared using three different lipids, DPPC, Cholesterol and GM1 with 68:30:2 molar ratios in 50 mM HEPES buffer of pH 7.4. Prior to the LUVs preparation, all the lipids were taken in clean glass vessel and solubilize to make 2 mM stock solution in chloroform and methanol (2:1) and the solvents were evaporated under vacuum. […]

Row | Compound | Inhibition of hIAPP amyloid formation (suppression of ThT fluorescence intensity) (hIAPP1-37) | Disruption of preformed hIAPP amyloid (ThT assay) [1] | further results
1 | CC(C)C[C@H](NC(=O)C(C)(C)NC(=O)[C@H](C)NC(=O)CNC(=O)[C@H](Cc1ccccc1)NC(=O)[C@@H](N)CC(N)=O)C(N)=O [Peptide 2] (H-NFGA[Aib]L-NH2) | ~ 40% | ~ 23% | 
2 | CC(C)C[C@H](NC(=O)c1ccccc1NC(=O)[C@H](C)NC(=O)CNC(=O)[C@H](Cc1ccccc1)NC(=O)[C@@H](N)CC(N)=O)C(N)=O [Peptide 3] (H-NFGA[2Abz]L-NH2) | ~ 55% | ~ 40% | Degradation in presence of human serum at 25 h [2]: some degradation
3 | CC(C)C[C@H](NC(=O)c1cccc(NC(=O)[C@H](C)NC(=O)CNC(=O)[C@H](Cc2ccccc2)NC(=O)[C@@H](N)CC(N)=O)c1)C(N)=O [Peptide 4] (H-NFGA[3Abz]L-NH2) | ~ 50% | ~ 33% | 
4 | CC(C)C[C@H](NC(=O)c1ccc(NC(=O)[C@H](C)NC(=O)CNC(=O)[C@H](Cc2ccccc2)NC(=O)[C@@H](N)CC(N)=O)cc1)C(N)=O [Peptide 5] (H-NFGA[4Abz]L-NH2) |  |  | Enhancement of ThT fluorescence intensity of hIAPP (hIAPP1-37): ~ 5%
5 | CC(C)C[C@H](NC(=O)C(C)(C)NC(=O)[C@H](C)NC(=O)C(C)(C)NC(=O)[C@H](Cc1ccccc1)NC(=O)[C@@H](N)CC(N)=O)C(N)=O [Peptide 6] (H-NF[Aib]A[Aib]L-NH2) | ~ 52% | ~ 40% | 
6 | CC(C)C[C@H](NC(=O)c1ccccc1NC(=O)[C@H](C)NC(=O)c1ccccc1NC(=O)[C@H](Cc1ccccc1)NC(=O)[C@@H](N)CC(N)=O)C(N)=O [Peptide 7] (H-NF[2Abz]A[2Abz]L-NH2) | ~ 70% | ~ 57% | Degradation in presence of human serum at 25 h [2]: complete retention of the peak
7 | CC(C)C[C@H](NC(=O)c1cccc(NC(=O)[C@H](C)NC(=O)c2cccc(NC(=O)[C@H](Cc3ccccc3)NC(=O)[C@@H](N)CC(N)=O)c2)c1)C(N)=O [Peptide 8] (H-NF[3Abz]A[3Abz]L-NH2) | ~ 65% | ~ 44% | 
8 | CC(C)C[C@H](NC(=O)c1ccc(NC(=O)[C@H](C)NC(=O)c2ccc(NC(=O)[C@H](Cc3ccccc3)NC(=O)[C@@H](N)CC(N)=O)cc2)cc1)C(N)=O [Peptide 9] (H-NF[4Abz]A[4Abz]L-NH2) |  |  | Enhancement of ThT fluorescence intensity of hIAPP (hIAPP1-37): ~ 12%
9 | CC[C@H](C)[C@H](NC(=O)[C@H](C)NC(=O)CNC(=O)[C@H](Cc1ccccc1)NC(=O)[C@H](CC(N)=O)NC(=O)[C@H](CC(N)=O)NC(=O)[C@H](CO)NC(=O)[C@H](CO)NC(=O)[C@H](Cc1c[nH]cn1)NC(=O)[C@@H](NC(=O)[C@H](CC(C)C)NC(=O)[C@H](Cc1ccccc1)NC(=O)[C@H](CC(N)=O)NC(=O)[C@H](C)NC(=O)[C@H](CC(C)C)NC(=O)[C@H](CCCNC(=N)N)NC(=O)[C@H](CCC(N)=O)NC(=O)[C@@H](NC(=O)[C@H](C)NC(=O)[C@@H]1CSSC[C@H](NC(=O)[C@@H](N)CCCCN)C(=O)N[C@@H](CC(N)=O)C(=O)N[C@@H]([C@@H](C)O)C(=O)N[C@@H](C)C(=O)N[C@@H]([C@@H](C)O)C(=O)N1)[C@@H](C)O)C(C)C)C(=O)N[C@@H](CC(C)C)C(=O)N[C@@H](CO)C(=O)N[C@@H](CO)C(=O)N[C@H](C(=O)N[C@@H](CC(N)=O)C(=O)N[C@H](C(=O)NCC(=O)N[C@@H](CO)C(=O)N[C@@H](CC(N)=O)C(=O)N[C@H](C(=O)N[C@@H](Cc1ccc(O)cc1)C(N)=O)[C@@H](C)O)C(C)C)[C@@H](C)O [hIAPP] |  |  | Dye leakage of LUVs treated with hIAPP [3]: rapid increment of dye leakage
10 | NFGAIL-NH2 [Peptide 1, reference compound] |  |  | Degradation in presence of human serum after 1 h ([2]; after 1 h): complete degradation
